From PubChem BioAssay (NCI)
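Values below derive from 48-hour exposures of cells grown in 96-well plates, with endpoints linearly interpolated between the two concentrations bracketing the appropriate inhibition level. TGI: concentration producing complete growth inhibition.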

What was measured:
Assay in all cases: inhibition of tumour cell growth, NCI panel, 48 h
786-0 renal = test system: 786-0 renal
A498 renal = test system: A498 renal
A549 NSCLC = test system: A549 NSCLC
ACHN renal = test system: ACHN renal
BT-549 breast = test system: BT-549 breast
CAKI-1 renal = test system: CAKI-1 renal
CCRF-CEM leukemia = test system: CCRF-CEM leukemia
COLO 205 colon = test system: COLO 205 colon
DU-145 prostate = test system: DU-145 prostate
EKVX NSCLC = test system: EKVX NSCLC
HCT-116 colon = test system: HCT-116 colon
HCT-15 colon = test system: HCT-15 colon
HL-60(TB) leukemia = test system: HL-60(TB) leukemia
HOP-62 NSCLC = test system: HOP-62 NSCLC
HOP-92 NSCLC = test system: HOP-92 NSCLC
HS 578T breast = test system: HS 578T breast
HT29 colon = test system: HT29 colon
IGROV1 ovarian = test system: IGROV1 ovarian
K-562 leukemia = test system: K-562 leukemia
KM12 colon = test system: KM12 colon
M14 melanoma = test system: M14 melanoma
MALME-3M melanoma = test system: MALME-3M melanoma
MCF7 breast = test system: MCF7 breast
MDA-MB-231 breast = test system: MDA-MB-231 breast
MDA-MB-435 = test system: MDA-MB-435
MDA-N = test system: MDA-N
MOLT-4 leukemia = test system: MOLT-4 leukemia
NCI-H226 lung = test system: NCI-H226 lung
NCI-H23 lung = test system: NCI-H23 lung
NCI-H460 lung = test system: NCI-H460 lung
NCI-H522 lung = test system: NCI-H522 lung
NCI/ADR-RES ovarian = test system: NCI/ADR-RES ovarian
OVCAR-3 ovarian = test system: OVCAR-3 ovarian
OVCAR-4 ovarian = test system: OVCAR-4 ovarian
OVCAR-5 ovarian = test system: OVCAR-5 ovarian
OVCAR-8 ovarian = test system: OVCAR-8 ovarian
PC-3 prostate = test system: PC-3 prostate
RPMI-8226 leukemia = test system: RPMI-8226 leukemia
RXF 393 renal = test system: RXF 393 renal
SF-268 CNS = test system: SF-268 CNS
SF-295 CNS = test system: SF-295 CNS
SF-539 CNS = test system: SF-539 CNS
SK-MEL-2 melanoma = test system: SK-MEL-2 melanoma
SK-MEL-28 melanoma = test system: SK-MEL-28 melanoma
SK-MEL-5 melanoma = test system: SK-MEL-5 melanoma
SK-OV-3 ovarian = test system: SK-OV-3 ovarian
SN12C renal = test system: SN12C renal
SNB-19 CNS = test system: SNB-19 CNS
SNB-75 CNS = test system: SNB-75 CNS
SR leukemia = test system: SR leukemia
SW-620 colon = test system: SW-620 colon
T-47D breast = test system: T-47D breast
U251 CNS = test system: U251 CNS
UACC-257 melanoma = test system: UACC-257 melanoma
UACC-62 melanoma = test system: UACC-62 melanoma
UO-31 renal = test system: UO-31 renal
HCC-2998 colon = test system: HCC-2998 colon
LOX IMVI melanoma = test system: LOX IMVI melanoma
TK-10 renal = test system: TK-10 renal

CC1=C(C(N)=O)C(c2ccncc2)C(C#N)=C2SCC(=O)N12 (centres undefined)
TGI (786-0 renal): > 100 µM | TGI (A498 renal): > 100 µM | TGI (A549 NSCLC): > 100 µM | TGI (ACHN renal): > 100 µM | TGI (BT-549 breast): > 100 µM | TGI (CAKI-1 renal): > 100 µM | TGI (CCRF-CEM leukemia): > 100 µM | TGI (COLO 205 colon): > 100 µM | TGI (DU-145 prostate): > 100 µM | TGI (EKVX NSCLC): > 100 µM | TGI (HCT-116 colon): > 100 µM | TGI (HCT-15 colon): > 100 µM | TGI (HL-60(TB) leukemia): > 100 µM | TGI (HOP-62 NSCLC): > 100 µM | TGI (HOP-92 NSCLC): > 100 µM | TGI (HS 578T breast): > 100 µM | TGI (HT29 colon): > 100 µM | TGI (IGROV1 ovarian): > 100 µM | TGI (K-562 leukemia): > 100 µM | TGI (KM12 colon): > 100 µM | TGI (M14 melanoma): > 100 µM | TGI (MALME-3M melanoma): > 100 µM | TGI (MCF7 breast): > 100 µM | TGI (MDA-MB-231 breast): > 100 µM | TGI (MDA-MB-435): > 100 µM | TGI (MDA-N): > 100 µM | TGI (MOLT-4 leukemia): > 100 µM | TGI (NCI-H226 lung): > 100 µM | TGI (NCI-H23 lung): > 100 µM | TGI (NCI-H460 lung): > 100 µM | TGI (NCI-H522 lung): > 100 µM | TGI (NCI/ADR-RES ovarian): > 100 µM | TGI (OVCAR-3 ovarian): > 100 µM | TGI (OVCAR-4 ovarian): > 100 µM | TGI (OVCAR-5 ovarian): > 100 µM | TGI (OVCAR-8 ovarian): > 100 µM | TGI (PC-3 prostate): > 100 µM | TGI (RPMI-8226 leukemia): > 100 µM | TGI (RXF 393 renal): > 100 µM | TGI (SF-268 CNS): > 100 µM | TGI (SF-295 CNS): > 100 µM | TGI (SF-539 CNS): > 100 µM | TGI (SK-MEL-2 melanoma): > 100 µM | TGI (SK-MEL-28 melanoma): > 100 µM | TGI (SK-MEL-5 melanoma): > 100 µM | TGI (SK-OV-3 ovarian): > 100 µM | TGI (SN12C renal): > 100 µM | TGI (SNB-19 CNS): > 100 µM | TGI (SNB-75 CNS): > 100 µM | TGI (SR leukemia): > 100 µM | TGI (SW-620 colon): > 100 µM | TGI (T-47D breast): > 100 µM | TGI (U251 CNS): > 100 µM | TGI (UACC-257 melanoma): > 100 µM | TGI (UACC-62 melanoma): > 100 µM | TGI (UO-31 renal): > 100 µM

O=C(C(=O)N1CCc2ccccc21)c1c[nH]c2ccccc12
TGI (786-0 renal): > 10 µM | TGI (A549 NSCLC): > 10 µM | TGI (ACHN renal): > 10 µM | TGI (BT-549 breast): > 10 µM | TGI (CAKI-1 renal): > 10 µM | TGI (CCRF-CEM leukemia): > 10 µM | TGI (COLO 205 colon): > 10 µM | TGI (DU-145 prostate): > 10 µM | TGI (EKVX NSCLC): > 10 µM | TGI (HCC-2998 colon): > 10 µM | TGI (HCT-116 colon): > 10 µM | TGI (HCT-15 colon): > 10 µM | TGI (HL-60(TB) leukemia): > 10 µM | TGI (HOP-62 NSCLC): > 10 µM | TGI (HOP-92 NSCLC): > 10 µM | TGI (HS 578T breast): > 10 µM | TGI (HT29 colon): > 10 µM | TGI (IGROV1 ovarian): > 10 µM | TGI (K-562 leukemia): > 10 µM | TGI (KM12 colon): > 10 µM | TGI (LOX IMVI melanoma): > 10 µM | TGI (M14 melanoma): > 10 µM | TGI (MALME-3M melanoma): > 10 µM | TGI (MCF7 breast): > 10 µM | TGI (MDA-MB-231 breast): > 10 µM | TGI (MDA-MB-435): > 10 µM | TGI (MDA-N): > 10 µM | TGI (MOLT-4 leukemia): > 10 µM | TGI (NCI-H226 lung): > 10 µM | TGI (NCI-H23 lung): > 10 µM | TGI (NCI-H460 lung): > 10 µM | TGI (NCI-H522 lung): > 10 µM | TGI (NCI/ADR-RES ovarian): > 10 µM | TGI (OVCAR-3 ovarian): > 10 µM | TGI (OVCAR-4 ovarian): > 10 µM | TGI (OVCAR-5 ovarian): > 10 µM | TGI (OVCAR-8 ovarian): > 10 µM | TGI (PC-3 prostate): > 10 µM | TGI (RPMI-8226 leukemia): > 10 µM | TGI (RXF 393 renal): > 10 µM | TGI (SF-268 CNS): > 10 µM | TGI (SF-295 CNS): > 10 µM | TGI (SF-539 CNS): > 10 µM | TGI (SK-MEL-2 melanoma): > 10 µM | TGI (SK-MEL-28 melanoma): > 10 µM | TGI (SK-MEL-5 melanoma): > 10 µM | TGI (SK-OV-3 ovarian): > 10 µM | TGI (SN12C renal): > 10 µM | TGI (SNB-19 CNS): > 10 µM | TGI (SNB-75 CNS): > 10 µM | TGI (SR leukemia): > 10 µM | TGI (SW-620 colon): > 10 µM | TGI (T-47D breast): > 10 µM | TGI (TK-10 renal): > 10 µM | TGI (U251 CNS): > 10 µM | TGI (UACC-257 melanoma): > 10 µM | TGI (UACC-62 melanoma): > 10 µM | TGI (UO-31 renal): > 10 µM
